The record followed here is patent US11077205B2, “Synthetic compound for improving efficiency of transfection” (Klinikum der Universität München, priority 2016, dated 2021).

The star is where a group is joined. ξ: configuration not given here. Lipoyl(6ξ) = O=C(CCCCC1CCSS1)*

Assay [1] concerns 16HBE cells. Description: In vitro transfection, Metridia luciferase assay in 16HBE cells. It is filed as cell-based, human. How it is done:
(§1) Preparation of IVT-mRNA/pDNA containing binary and ternary complexes: Stock solutions of P704 (5 mg/ml) and synthetic compound (1 mg/ml) were prepared in nuclease-free water (NF water) and stored at 4° C. P704 based binary complexes (P704/IVT-mRNA or P704/pDNA) were prepared by mixing equal volumes of diluted P704 stock solution with IVT-mRNA or pDNA solution at the desired concentration in 2× Tyrode's solution. Ternary complexes were generated via two-steps incubation. Briefly, P704 solutions at certain concentration (defined as weight/weight (w/w) ratio between P704 and nucleic acids) in NF-water were mixed with equal volume of synthetic compound solution at specific concentration (defined as N/P ratio, namely the […] between nitrogen residues in synthetic compound and nucleic acids phosphate groups). After 20 min incubation at room temperature (RT), same volumes of nucleic acid (IVT-mRNA or pDNA) solution in NF-water were added to the above P704/synthetic compound solution and mixed gently by pipetting up and down several times. Subsequently, complexes were incubated for another 20 min at RT prior to further use. IVT-mRNA or pDNA solutions in NF-water were complexed with brPEI (25 kDa) at an optimum N/P ratio, the resulting complexes were served as a control polyplex. As for control lipoplex, Lipofectamine® 2000 complexes were prepared according to the manufacturer's instructions using optimum concentration. In order to prepare DOTAP/DOPE liposomes, a lipid film was formed by removing the chloroform solvent in DOTAP/DOPE mixture solution under nitrogen atmosphere. The lipid film is hydrated with NF-water to make the final concentration 10 mM DOTAP/DOPE. The DOTAP/DOPE liposome formulation was formed by mixing 250 μl of pDNA encoding for firefly luciferase and cystic fibrosis transmembrane conductance regulator (fLUC-CFTR pDNA) (150 μg) containing solution and 250 μl diluted DOTAP/DOPE solution (190 μl of 10 mM DOTAP/DOPE liposome and 60 μl NF-water). The mix solution was incubated at RT for 20 min prior to further use.
In vitro transfection: For the luciferase assay, cells were seeded at a density of 1.8×10^4/well (BEAS-2B) or 3.5×10^4/well (16HBE) in 96-well plates 24 h before transfection to reach 60-80% confluence. Following removal of growth medium, cells were rinsed with DPBS (Gibco, Germany). 170 μl of fresh serum-free OptiMEM (Gibco, Germany) were added per well, and subsequently 30 μl of IVT-mRNA or pDNA containing complexes prepared, as described above, corresponding to 400 ng IVT-mRNA or pDNA per well, were added in replicates of five. After 4 h of incubation at 37° C. in a humidified 5% CO2-containing atmosphere, the transfection medium was replaced with culture medium supplemented with 10% FBS and 1% (v/v) penicillin/streptomycin. Luciferase activity in 50 μl supernatants from transfected cells was assayed with Metridia luciferase substrate (coelenterazine, Invivogen, France) after 24 h using a FLUOstar microplate reader (BMG Labtech, Germany) and its activity is expressed in relative light units (RLU). In all cases each sample was measured on at least two other occasions to ensure the reproducibility of the data. […]
(§2) The concentration of P704 in ternary complexes for treatment of BEAS-2B cells was 50 (w/w) and the concentration of P704 in ternary complexes for treatment of 16HBE cells was 63 (w/w). The N/P ratios of the compounds in ternary complexes were as follows:
16HBE cells: Compound 0 (DL) at 20, compounds 1 and 11 at 15, compounds 2 and 3 at 10, compounds 4, 6, 8, and 9 at 5, compounds 5, 7, and 10 at 2.5.
The same transfection procedure as described above was applied.
The concentration of P704 in ternary complexes was 63 (w/w). The N/P ratio of the compounds in certain ternary complexes was as follows:
16HBE cells: Compound 1, 8, and 11 at 20; compound 0 (DL) and 3 at 10; compound 2 at 7.5; compounds 4, 6, 9, and 10 at 5, compounds 5 and 7 at 2.5. […]

The subject of assay [2] is BEAS-2B cells. The assay can be described thus: In vitro transfection, Metridia luciferase assay in BEAS-2B cells. It is filed as cell-based, human. The protocol:
as §1
In vitro transfection: For the luciferase assay, cells were seeded at a density of 1.8×10^4/well (BEAS-2B) or 3.5×10^4/well (16HBE) in 96-well plates 24 h before transfection to reach 60-80% confluence. Following removal of growth medium, cells were rinsed with DPBS (Gibco, Germany). 170 μl of fresh serum-free OptiMEM (Gibco, Germany) were added per well, and subsequently 30 μl of IVT-mRNA or pDNA containing complexes prepared, as described above, corresponding to 400 ng IVT-mRNA or pDNA per well, were added in replicates of five. After 4 h of incubation at 37° C. in a humidified 5% CO2-containing atmosphere, the transfection medium was replaced with culture medium supplemented with 10% FBS and 1% (v/v) penicillin/streptomycin. Luciferase activity in 50 μl supernatants from transfected cells was assayed with Metridia luciferase substrate (coelenterazine, Invivogen, France) after 24 h using a FLUOstar microplate reader (BMG Labtech, Germany) and its activity is expressed in relative light units (RLU). In all cases each sample was measured on at least two other occasions to ensure the reproducibility of the data.
The same transfection procedure as described above was applied. Luciferase activity was expressed in RLU. The data are given as the mean±standard deviation (SD) of the mean (n>5) in FIGS. 12a to 12k.
as §2
BEAS-2B cells: Compound 0 (DL) at 30, compound 1 at 20, compounds 3 and 11 at 15, compounds 4 and 6 at 10, compounds 2 and 9 at 5, compounds 5, 7, 8 and 10 at 2.5.
The same transfection procedure as described above was applied. Luciferase activity was expressed in RLU. […]

With “KETWWETWWTEWWTEW-KKKKRRRRRKKKK-GACSERSMNFCG (KETWWETWWTEWWTEWKKKKRRRRRKKKKGACSERSMNFCG) [compound 9]”, the “IVT-mRNA transfection efficiency of P704 ternary complex (in words)” value in assay [1] (MetLuc mRNA, P704 63 (w/w), optimum N/P, FIG. 17b) is on record as “more superior to other counterparts”; in assay [2] (MetLuc mRNA, P704 63 (w/w), optimum N/P, FIG. 17a), “more superior to other counterparts”. For the same substance, the “pDNA transfection efficiency of P704 ternary complex (in words)” value in assay [1] (MetLuc pDNA, P704 63 (w/w), optimum N/P, FIG. 14b) is reported as “overwhelming signals”; in assay [2] (MetLuc pDNA, P704 50 (w/w), optimum N/P, FIG. 14a) it was “highest transfection efficiency”.

Regarding “NH2-VKRKKKPKKRRRRKKWK(DL-lipoic acid)-CONH2 (H-VKRKKKPKKRRRRKKWK(Lipoyl(6ξ))-NH2; SMILES CC(C)[C@H](N)C(=O)N[C@@H](CCCCN)C(=O)N[C@@H](CCCNC(=N)N)C(=O)N[C@@H](CCCCN)C(=O)N[C@@H](CCCCN)C(=O)N[C@@H](CCCCN)C(=O)N1CCC[C@H]1C(=O)N[C@@H](CCCCN)C(=O)N[C@@H](CCCCN)C(=O)N[C@@H](CCCNC(=N)N)C(=O)N[C@@H](CCCNC(=N)N)C(=O)N[C@@H](CCCNC(=N)N)C(=O)N[C@@H](CCCNC(=N)N)C(=O)N[C@@H](CCCCN)C(=O)N[C@@H](CCCCN)C(=O)N[C@@H](Cc1c[nH]c2ccccc12)C(=O)N[C@@H](CCCCNC(=O)CCCCC1CCSS1)C(N)=O) [compound 0 (DL)]”, the “pDNA expression compared with compound 3 containing ternary complex” value in assay [1] (other days than day 2) is recorded as “significantly higher”. Also, in assay [2] (MetLuc pDNA, FIG. 14a), the “pDNA expression relative to compound 3 containing ternary complex” value is roughly 5 times.
